Test results: ChEMBL document CHEMBL1240307, “A functional genomics approach to the mode of action of apratoxin A” (Nat Chem Biol, 2006)

How the values were obtained:
Format in all cases: functional
[1] = test system: HL-60(TB); assay: Cytotoxicity against human HL-60(TB) cells by sulforhodamine B assay
[2] = test system: K562; assay: Cytotoxicity against human K562 cells by sulforhodamine B assay
[3] = test system: MOLT-4; assay: Cytotoxicity against human MOLT4 cells by sulforhodamine B assay
[4] = test system: SR; assay: Cytotoxicity against human SR cells by sulforhodamine B assay
[5] = test system: HOP-92; assay: Cytotoxicity against human HOP92 cells by sulforhodamine B assay
[6] = test system: NCI-H226; assay: Cytotoxicity against human NCI-H226 cells by sulforhodamine B assay
[7] = test system: HCC 2998; assay: Cytotoxicity against human HCC2998 cells by sulforhodamine B assay
[8] = test system: HCT-116; assay: Cytotoxicity against human HCT116 cells by sulforhodamine B assay
[9] = test system: KM12; assay: Cytotoxicity against human KM12 cells by sulforhodamine B assay
[10] = test system: CAKI-1; assay: Cytotoxicity against human Caki1 cells by sulforhodamine B assay
[11] = test system: RXF 393; assay: Cytotoxicity against human RXF393 cells by sulforhodamine B assay
[12] = test system: TK-10; assay: Cytotoxicity against human TK10 cells by sulforhodamine B assay
[13] = test system: PC-3; assay: Cytotoxicity against human PC3 cells by sulforhodamine B assay
[14] = test system: MCF7; assay: Cytotoxicity against human MCF7 cells by sulforhodamine B assay
[15] = test system: HT-29; assay: Antitumor activity against human HT-29 cells assessed as upregulation of RASSF4 mRNA expression at 2 nM after 6 hrs relative to control
[16] = test system: HT-29; assay: Antitumor activity against human HT-29 cells assessed as upregulation of RASSF4 mRNA expression at 10 nM after 6 hrs relative to control
[17] = test system: HT-29; assay: Antitumor activity against human HT-29 cells assessed as upregulation of DDIT4 mRNA expression at 10 nM after 6 hrs relative to control
[18] = test system: HT-29; assay: Antitumor activity against human HT-29 cells assessed as upregulation of DDIT4 mRNA expression at 10 nM after 12 hrs relative to control
[19] = test system: HT-29; assay: Antitumor activity against human HT-29 cells assessed as upregulation of HSPA1A mRNA expression at 2 nM after 3 hrs relative to control
[20] = test system: HT-29; assay: Antitumor activity against human HT-29 cells assessed as upregulation of HSPA1A mRNA expression at 2 nM after 6 hrs relative to control
[21] = test system: HT-29; assay: Antitumor activity against human HT-29 cells assessed as down-regulation of RAB11B mRNA expression at 10 nM after 3 hrs relative to control
[22] = test system: HT-29; assay: Antitumor activity against human HT-29 cells assessed as down-regulation of RAB11B mRNA expression at 2 nM after 6 hrs relative to control
[23] = test system: HT-29; assay: Antitumor activity against human HT-29 cells assessed as down-regulation of RAB11B mRNA expression at 10 nM after 12 hrs relative to control
[24] = test system: HT-29; assay: Antitumor activity against human HT-29 cells assessed as down-regulation of TAL1 mRNA expression at 10 nM after 12 hrs relative to control
[25] = test system: HT-29; assay: Antitumor activity against human HT-29 cells assessed as down-regulation of CCNE2 mRNA expression at 10 nM after 6 hrs relative to control
[26] = test system: HT-29; assay: Antitumor activity against human HT-29 cells assessed as down-regulation of CCNE2 mRNA expression at 10 nM after 12 hrs relative to control
[27] = test system: HT-29; assay: Antitumor activity against human HT-29 cells assessed as down-regulation of GTSE1 mRNA expression at 10 nM after 6 hrs relative to control
[28] = test system: HT-29; assay: Antitumor activity against human HT-29 cells assessed as upregulation of KCNK10 mRNA expression at 2 nM after 3 hrs relative to control
[29] = test system: HT-29; assay: Antitumor activity against human HT-29 cells assessed as upregulation of MGC4504 mRNA expression at 2 nM after 3 hrs relative to control
[30] = test system: U2OS; assay: Cell cycle arrest in human U2OS cells assessed as accumulation at G1 phase at 50 nM after 24 hrs by FACS analysis (reference value: 49.8%)
[31] = test system: U2OS; assay: Induction of apoptosis in human U2OS cells assessed as caspase3 dependent cleavage of Ac-DEVD-pNA at 50 nM after 6-48 hrs by […] relative to control
[32] = test system: U2OS; assay: Cell cycle arrest in human U2OS cells overexpressing mouse Fgfr1 assessed as accumulation at G1 phase at 15 nM after 48 hrs by CMV-GFP reporter assay method (reference value: 58%)

With `CC[C@H](C)[C@H]1C(=O)N2CCC[C@H]2C(=O)O[C@H](C(C)(C)C)C[C@@H](C)C[C@H](O)[C@H](C)C2=N[C@@H](/C=C(\C)C(=O)N[C@@H](Cc3ccc(OC)cc3)C(=O)N(C)[C@@H](C)C(=O)N1C)CS2` [APRATOXIN A] the GI50 [1] was 0.851 nM, the GI50 [2] was 14.8 nM and the GI50 [3] was 48 nM. It also gave a GI50 [4] of 1.5 nM, a CC50 ([4]; read-out: LC50 (the source's name)) of 27.4 nM and a GI50 [5] of 3.09 nM. For the same compound, the GI50 [6] was 1.31 nM, the GI50 [7] was 3.65 nM and the GI50 [8] was 0.916 nM. It also gave a GI50 [9] of 3.52 nM, a GI50 [10] of 4.05 nM and a GI50 [11] of 7.12 nM. For the same compound, the GI50 [12] was 2.63 nM, the GI50 [13] was 4.96 nM and the GI50 [14] was 6.57 nM. For the same compound, the “fold change (FC)” value [15] was “<=2”, the “fold change (FC)” value [16] was “<=2” and the “fold change (FC)” value [17] was 16.18. The “fold change (FC)” value [18] was 6.82, the “fold change (FC)” value [19] was “<=2” and the “fold change (FC)” value [20] was 2.56. For the same compound, the “fold change (FC)” value [21] was “<=2”, the “fold change (FC)” value [22] was “<=2” and the “fold change (FC)” value [23] was “<=2”. The “fold change (FC)” value [24] was “<=2”, the “fold change (FC)” value [25] was “<=2” and the “fold change (FC)” value [26] was -2.17. For the same compound, the “fold change (FC)” value [27] was “<=2”, the “fold change (FC)” value [28] was “<=2” and the “fold change (FC)” value [29] was “<=2”. The inhibition at 0.05 µM [30] was 68.3%, the “fold change (FC)” value [31] was 20 and the inhibition at 0.015 µM [32] was 58%.
